This is an account of results in patent US20100137676A1, “N-ACETYLCYSTEINE AMIDE (NAC AMIDE) FOR TREATMENT OF OXIDATIVE STRESS ASSOCIATED WITH INFERTILITY” (priority 2005, published 2010).

The subject of experiment [1] is porcine oocytes. In words: Glutathione assay: intracellular GSH concentration per oocyte after supplementation of maturation medium. To be noted: supplementation 1.0 mM; for GSH concentration/oocyte: porcine oocytes, control 3.19. The experiment is classed as cell-based. The protocol: (§1) This Example describes an evaluation of the effects of NAC amide, glutathione (GSH) and N-acetylcysteine (NAC) supplementation to incubation and culture media during porcine oocyte maturation, fertilization and embryo culture on various measures of fertilization and embryo development, as well as on the intracellular concentration of GSH.
(§2) Experimental Design: Three trials were conducted, each trial utilizing 30 porcine oocytes per treatment group (90 total oocytes per each of four treatment groups). Oocytes were purchased from Trans Ova Genetics, Sioux City, Iowa. Treatment groups were: 1) Control (no supplemental anti-oxidants); 2) GSH supplementation (1.0 mM); 3) NAC supplementation (1.0 mM); and 4) NAC amide supplementation (1.0 mM).
(§3) In vitro Maturation: Oocytes were maturated for 20 to 24 hours in tissue culture medium 199 with Earle's salts, 0.01 U/mL LH and FSH, 10 ng/mL EGF, antibiotics, and 10% fetal calf serum under mineral oil (Specialty Media, Phillipsburg, N.J.) at 39° C. in an atmosphere of 5% CO2 and then for an additional 20 to 24 h without hormones.
Glutathione Assay: Oocytes were washed in PBS, frozen, and ruptured using a blunt glass rod in phosphoric acid. The assay was performed as described previously (B. D. Whitaker and J. W. Knight, 2004, Theriogenology, 62:311-322) and the amount of GSH was determined using a standard curve of concentration GSH versus rate of change in absorbency.

In experiment [2] the test system is porcine oocytes / embryos. The experiment in a line: Embryo development to 2-cell and blastocyst stage after IVF in supplemented media (Example 1). The format is cell-based. The settings on record: for % embryos reaching 2-cell stage of development / % embryos reaching blastocyst stage of development (of those in observed in the 2-cell stage): supplementation 1.0 mM, IVF; for % embryos reaching 2-cell stage of development: control 19; for % embryos reaching blastocyst stage of development (of those in observed in the 2-cell stage): culture to blastocyst stage, control 40. The protocol:
as §1, §2, §3
(§4) In vitro Fertilization (IVF) of Oocytes: Cumulus cells by were removed by agitation with 0.1% hyaluronidase, washed and placed in Tris-fertilization medium (113.1 mM NaCl, 3 mM KCl, 7.5 mM CaCl2.2H2O, 20 mM Tris, 11 mM D (+)-glucose, 5 mM sodium pyruvate, 1 mg/mL BSA, 2 mM caffeine) with mineral oil overlay and freeze-thawed spermatozoa were added at a concentration of 2000 spermatozoa/oocyte. The gametes were incubated at 39° C. in an atmosphere of 5% CO2 for approximately 6 hours.
In vitro Culture: Putative zygotes were washed and incubated in NCSU-23 culture medium (108.73 mM NaCl, 4.78 mM KCl, 1.19 mM KH2PO4, 1.19 mM MgSO4.7H2O, 5.5 mM glucose, 1 mM glutamine, 7 mM taurine 5 mM hypotaurine, 25.07 mM NaHCO3, 1.7 mM CaCl2.2H2O, 75 μg/mL Penicillin G, 50 μg/mL Streptomycin, 4 mg/mL BSA, pH 7.4) with mineral oil overlay at 39° C. in an atmosphere of 5% CO2 for 48 hours. After 48 hours, embryos that had undergone the first cell division were placed in fresh NCSU 23 culture media in the same manner as described above until blastocyst formation, 144 hours post-IVF.
The remaining zygotes were cultured through the blastocyst stage of development ([…]) in their respective media and their development and viability progress was recorded (Table 2). NAC amide supplementation of the culture medium enhanced the development of zygotes to the 2-cell stage and further aided the subsequent final percentage of those embryos reaching the 2-cell stage that continued development onto the blastocyst stage (the endpoint of in vitro analysis).

Experiment [3] has as its system porcine putative zygotes. The experiment in a line: In vitro fertilization parameter evaluation by nuclear staining of putative zygotes. The format is cell-based. The settings on record: 12 hours after IVF; n=4 zygotes per group; preliminary, subjective. The protocol: as §2, §4
In vitro Fertilization Parameter Evaluation: Fertilization was analyzed 12 hours after IVF by fixing the oocytes on a microscope slide with 25% (v:v) acetic acid in ethanol at room temperature for 48 hours. Oocytes were stained with 1% orcein in 45% (v:v) acetic acid and examined using a phase-contrast microscope at 400× magnification.
Fertilization parameters were subjectively examined by nuclear staining samples (n=4) of putative zygotes from each of the treatment groups 12 hours after IVF was complete (Illustration 1, * indicates pronucleus). In the preliminary analysis, only a small number of zygotes were subjected to staining, since the intent of the studies described herein was to assess the number of zygotes that continued development to the 2-cell and blastocyst stages. This analysis was simply to see if any obvious anomalies were occurring.

Experiment [4] has as its system porcine oocytes / embryos. The experiment in a line: Embryo development after IVF with NAC amide supplementation (Example 4). The settings on record: of 70 oocytes. The format is cell-based. An excerpt: (§5) This Example investigates the effects of NAC amide supplementation to culture media during porcine oocyte maturation, fertilization, and embryo culture on intracellular concentrations of GSH after oocyte maturation, IVF parameters, success of intracytoplasmic sperm injection (ICSI), and embryo development following ICSI and pronuclear microinjection.
(§6) All chemicals, unless otherwise specified, were obtained from Sigma Chemical Company (St. Louis, Mo.) and were of embryo grade quality. Dr. Glenn Goldstein and associates provided the NAC amide. Oocytes (BoMed, Madison, Wis.) were maturated for 20 to 24 h in tissue culture medium 199 supplemented with Earle's salts, 0.01 U/mL LH and FSH, antibiotics, and 10% fetal calf serum under mineral oil (Specialty Media, Phillipsburg, N.J.) at 39° C. in an atmosphere of 5% CO2 and then for an additional 20 to 24 h without hormones.
Cumulus cells were removed by agitation with 0.1% hyaluronidase, washed and placed in Tris-fertilization medium (113.1 mM NaCl, 3 mM KCl, 7.5 mM CaCl2.2H2O, 20 mM Tris, 11 mM D(+)-glucose, 5 mM sodium pyruvate, 1 mg/mL BSA, 2 mM caffeine) with mineral oil overlay and frozen-thawed spermatozoa were added at a concentration of 2000 spermatozoa/oocyte. The gametes were incubated at 39° C. in an atmosphere of 5% CO2 for approximately 6 h. […]

The test system of experiment [5] is porcine oocytes / embryos. The experiment in a line: Embryo development after intracytoplasmic sperm injection (ICSI) with NAC amide supplementation (Example 4). The format is cell-based. To be noted: of 24 oocytes.
Source text: as §5, §6
Cumulus cells were removed by agitation with 0.1% hyaluronidase, washed and placed in microdrops of NCSU-23 culture medium (108.73 mM NaCl, 4.78 mM KCl, 1.19 mM KH2PO4, 1.19 mM MgSO4.7H2O, 5.5 mM glucose, 1 mM glutamine, 7 mM taurine 5 mM hypotaurine, 25.07 mM NaHCO3, 1.7 mM CaCl2.2H2O, 75 μg/mL Penicillin G, 50 μg/mL Streptomycin, 4 mg/mL BSA, pH 7.4) with mineral oil overlay at 39° C. after centrifugation at 15000×g. Frozen-thawed sperm were then placed in an adjacent microdrop. […]

Experiment [6] deals with mammalian red blood cells (RBCs). To be noted: cited from earlier work.
The conditions of experiment [7]: cell-free system; cited from earlier work.

Turning to `N[C@@H](CCC(=O)N[C@@H](CS)C(=O)NCC(=O)O)C(=O)O` [GSH, glutathione], the “GSH concentration/oocyte” value in experiment [1] came to 4.18 pmol. Moreover, in experiment [2], the “% embryos reaching 2-cell stage of development” value (“% embryos reaching 2-cell stage” below) is 25% and the “% embryos reaching blastocyst stage of development (of those in observed in the 2-cell stage)” value (“% embryos reaching blastocyst stage” for short) was found to be 40%. Moreover, the “changes on fertilization events (nuclear staining)” value (“changes on fertilization events” below) in experiment [3] is on record as “did not have any noticeable changes”.

For `CC(=O)N[C@@H](CS)C(=O)O` [NAC, N-acetylcysteine], the “intracellular GSH concentration, statistical comparison with control” value in experiment [1] (P<0.05) is “significantly (P<0.05) higher than control”. Besides, the “GSH concentration/oocyte” value in experiment [1] is reported as 6.00 pmol. Moreover, in experiment [2], the “% embryos reaching 2-cell stage” value is reported as 30% and the “% embryos reaching blastocyst stage” value came to 55%. In addition, the “changes on fertilization events” value in experiment [3] is “did not have any noticeable changes”.

In the case of N-acetylcysteine amide [NAC amide], in experiment [1], the “greater increase in intracellular GSH compared with supplementation of GSH per se” value turned out to be 40%, the “greater intracellular GSH concentration compared with NAC supplementation” value turned out to be 15%, the “increase in intracellular GSH concentration compared with control” value is reported as 2.2 fold and the “GSH concentration/oocyte” value is 7.03 pmol. Moreover, in experiment [1] (P<0.05), the “intracellular GSH concentration, statistical comparison with GSH” value is recorded as “significantly (P<0.05) higher than GSH” and the “intracellular GSH concentration, statistical comparison with control” value was “significantly (P<0.05) higher than control”. Further, the “% of embryos developing to the 2-cell and blastocyst stages, statistical comparison” value in experiment [2] (2-cell P<0.05, blastocyst P<0.10) is reported as “significantly greater % of embryos”. In experiment [2], the “% embryos reaching 2-cell stage” value is given as 45% and the “% embryos reaching blastocyst stage” value was 85%. The “changes on fertilization events” value in experiment [3] was “did not have any noticeable changes”. Besides, the “# of Embryos reaching blastocyst stage of development” value in experiment [4] (control 6 of 67) is listed as 12. Further, the “# of Embryos reaching 2-cell stage of development” value in experiment [4] (control 10 of 67) was found to be 22. The “# of Embryos reaching blastocyst stage of development” value in experiment [5] (control 2 of 25) was determined as 5. Also, in experiment [5] (control 5 of 25), the “# of Embryos reaching 2-cell stage of development” value turned out to be 12. Also, in experiment [6] (RBCs), the hemoglobin oxidation entry is on record as “protected hemoglobin from oxidation” and the “tert.-butylhydroxyperoxide (BuOOH)-induced intracellular oxidation” value is recorded as “inhibit”. Further, the “restoration of thiol-depleted RBCs” value in experiment [6] (externally applied, compared with NAC) is reported as “significantly greater than that found using NAC”. Moreover, in experiment [7], the “reaction with oxidized glutathione (GSSG)” value is recorded as “react with oxidized glutathione (GSSG) to generate reduced glutathione (GSH)”.
